Experimental data as given in ChEMBL document CHEMBL1240393, “Full Resistance and decreased susceptibility to carbapenems in IMP-13-producing Pseudomonas aeruginosa isolates from an outbreak” (2010).
Values after ≈ are worked out from the molar mass of the structure shown.

Columns and labels:
Pseudomonas aeruginosa [1] = experiment: Antibacterial activity against beta-lactamase IMP-13 producing Pseudomonas aeruginosa isolate 10 assessed as zone of inhibition by disk diffusion assay; type: functional
Pseudomonas aeruginosa [2] = experiment: Antibacterial activity against beta-lactamase IMP-13 producing Pseudomonas aeruginosa isolate 10; type: functional
Pseudomonas aeruginosa [3] = experiment: Antibacterial activity against beta-lactamase IMP-13 producing Pseudomonas aeruginosa isolate 5 assessed as zone of inhibition by disk diffusion assay; type: functional
Pseudomonas aeruginosa [4] = experiment: Antibacterial activity against beta-lactamase IMP-13 producing Pseudomonas aeruginosa isolate 18
Pseudomonas aeruginosa [5] = experiment: Antibacterial activity against beta-lactamase IMP-13 producing Pseudomonas aeruginosa isolate 3; type: functional
Pseudomonas aeruginosa [6] = experiment: Antibacterial activity against beta-lactamase IMP-13 producing Pseudomonas aeruginosa isolate 13 assessed as zone of inhibition by disk diffusion assay; type: functional
Pseudomonas aeruginosa [7] = experiment: Antibacterial activity against beta-lactamase IMP-13 producing Pseudomonas aeruginosa isolate 9 assessed as zone of inhibition by disk diffusion assay; type: functional
Pseudomonas aeruginosa [8] = experiment: Antibacterial activity against beta-lactamase IMP-13 producing Pseudomonas aeruginosa isolate 4 assessed as zone of inhibition by disk diffusion assay; type: functional
Pseudomonas aeruginosa [9] = experiment: Antibacterial activity against beta-lactamase IMP-13 producing Pseudomonas aeruginosa isolate 8 assessed as zone of inhibition by disk diffusion assay; type: functional
Pseudomonas aeruginosa [10] = experiment: Antibacterial activity against beta-lactamase IMP-13 producing Pseudomonas aeruginosa isolate 5; type: functional
Pseudomonas aeruginosa [11] = experiment: Antibacterial activity against beta-lactamase IMP-13 producing Pseudomonas aeruginosa isolate 6
Pseudomonas aeruginosa [12] = experiment: Antibacterial activity against beta-lactamase IMP-13 producing Pseudomonas aeruginosa isolate 14 assessed as zone of inhibition by disk diffusion assay; type: functional
Pseudomonas aeruginosa [13] = experiment: Antibacterial activity against beta-lactamase IMP-13 producing Pseudomonas aeruginosa isolate 7 assessed as zone of inhibition by disk diffusion assay; type: functional
Pseudomonas aeruginosa [14] = experiment: Antibacterial activity against beta-lactamase IMP-13 producing Pseudomonas aeruginosa isolate 7; type: functional
Pseudomonas aeruginosa [15] = experiment: Antibacterial activity against beta-lactamase IMP-13 producing Pseudomonas aeruginosa isolate 9
Pseudomonas aeruginosa [16] = experiment: Antibacterial activity against beta-lactamase IMP-13 producing Pseudomonas aeruginosa isolate 2 assessed as zone of inhibition by disk diffusion assay; type: functional
Pseudomonas aeruginosa [17] = experiment: Antibacterial activity against beta-lactamase IMP-13 producing Pseudomonas aeruginosa isolate 17 assessed as zone of inhibition by disk diffusion assay; type: functional
Pseudomonas aeruginosa [18] = experiment: Antibacterial activity against beta-lactamase IMP-13 producing Pseudomonas aeruginosa isolate 14; type: functional
Pseudomonas aeruginosa [19] = experiment: Antibacterial activity against beta-lactamase IMP-13 producing Pseudomonas aeruginosa isolate 16; type: functional
Pseudomonas aeruginosa [20] = experiment: Antibacterial activity against beta-lactamase IMP-13 producing Pseudomonas aeruginosa isolate 4; type: functional
Pseudomonas aeruginosa [21] = experiment: Antibacterial activity against beta-lactamase IMP-13 producing Pseudomonas aeruginosa isolate 11; type: functional
Pseudomonas aeruginosa [22] = experiment: Antibacterial activity against beta-lactamase IMP-13 producing Pseudomonas aeruginosa isolate 13; type: functional
Pseudomonas aeruginosa [23] = experiment: Antibacterial activity against beta-lactamase IMP-13 producing Pseudomonas aeruginosa isolate 12 assessed as zone of inhibition by disk diffusion assay; type: functional
Pseudomonas aeruginosa [24] = experiment: Antibacterial activity against beta-lactamase IMP-13 producing Pseudomonas aeruginosa isolate 18 assessed as zone of inhibition by disk diffusion assay; type: functional
Pseudomonas aeruginosa [25] = experiment: Antibacterial activity against beta-lactamase IMP-13 producing Pseudomonas aeruginosa isolate 6 assessed as zone of inhibition by disk diffusion assay; type: functional
Pseudomonas aeruginosa [26] = experiment: Antibacterial activity against beta-lactamase IMP-13 producing Pseudomonas aeruginosa isolate 15 assessed as zone of inhibition by disk diffusion assay; type: functional
Pseudomonas aeruginosa [27] = experiment: Antibacterial activity against beta-lactamase IMP-13 producing Pseudomonas aeruginosa isolate 17
Pseudomonas aeruginosa [28] = experiment: Antibacterial activity against beta-lactamase IMP-13 producing Pseudomonas aeruginosa isolate 16 assessed as zone of inhibition by disk diffusion assay; type: functional
Pseudomonas aeruginosa [29] = experiment: Antibacterial activity against beta-lactamase IMP-13 producing Pseudomonas aeruginosa isolate 15; type: functional
Pseudomonas aeruginosa [30] = experiment: Antibacterial activity against beta-lactamase IMP-13 producing Pseudomonas aeruginosa isolate 8; type: functional
Pseudomonas aeruginosa [31] = experiment: Antibacterial activity against beta-lactamase IMP-13 producing Pseudomonas aeruginosa isolate 12; type: functional
Pseudomonas aeruginosa [32] = experiment: Antibacterial activity against beta-lactamase IMP-13 producing Pseudomonas aeruginosa isolate 11 assessed as zone of inhibition by disk diffusion assay; type: functional
Pseudomonas aeruginosa [33] = experiment: Antibacterial activity against beta-lactamase IMP-13 producing Pseudomonas aeruginosa isolate 1 assessed as zone of inhibition by disk diffusion assay; type: functional
Pseudomonas aeruginosa [34] = experiment: Antibacterial activity against beta-lactamase IMP-13 producing Pseudomonas aeruginosa isolate 3 assessed as zone of inhibition by disk diffusion assay; type: functional
Pseudomonas aeruginosa [35] = experiment: Antibacterial activity against beta-lactamase IMP-13 producing Pseudomonas aeruginosa isolate 1; type: functional
Pseudomonas aeruginosa [36] = experiment: Antibacterial activity against beta-lactamase IMP-13 producing Pseudomonas aeruginosa isolate 2; type: functional

SMILES: C[C@@H](O)[C@H]1C(=O)N2C(C(=O)O)=C(SCCNC=N)C[C@H]12 [IMIPENEM ANHYDROUS]
- inhibition zone (IZ) (Pseudomonas aeruginosa [1]): 21 mm
- MIC (Pseudomonas aeruginosa [2]): 2 µg/mL (≈ 6.68 µM)
- inhibition zone (IZ) (Pseudomonas aeruginosa [3]): 21 mm
- MIC (Pseudomonas aeruginosa [4]): 2 µg/mL (≈ 6.68 µM)
- MIC (Pseudomonas aeruginosa [5]): 2 µg/mL (≈ 6.68 µM)
- inhibition zone (IZ) (Pseudomonas aeruginosa [6]): 6 mm
- inhibition zone (IZ) (Pseudomonas aeruginosa [7]): 18 mm
- inhibition zone (IZ) (Pseudomonas aeruginosa [8]): 21 mm
- inhibition zone (IZ) (Pseudomonas aeruginosa [9]): 21 mm
- MIC (Pseudomonas aeruginosa [10]): 2 µg/mL (≈ 6.68 µM)
- MIC (Pseudomonas aeruginosa [11]): 2 µg/mL (≈ 6.68 µM)
- inhibition zone (IZ) (Pseudomonas aeruginosa [12]): 6 mm
- inhibition zone (IZ) (Pseudomonas aeruginosa [13]): 21 mm
- MIC (Pseudomonas aeruginosa [14]): 2 µg/mL (≈ 6.68 µM)
- MIC (Pseudomonas aeruginosa [15]): 2 µg/mL (≈ 6.68 µM)
- inhibition zone (IZ) (Pseudomonas aeruginosa [16]): 21 mm
- inhibition zone (IZ) (Pseudomonas aeruginosa [17]): 20 mm
- MIC (Pseudomonas aeruginosa [18]): 32 µg/mL (≈ 107 µM)
- MIC (Pseudomonas aeruginosa [19]): 32 µg/mL (≈ 107 µM)
- MIC (Pseudomonas aeruginosa [20]): 2 µg/mL (≈ 6.68 µM)
- MIC (Pseudomonas aeruginosa [21]): 2 µg/mL (≈ 6.68 µM)
- MIC (Pseudomonas aeruginosa [22]): 32 µg/mL (≈ 107 µM)
- inhibition zone (IZ) (Pseudomonas aeruginosa [23]): 18 mm
- inhibition zone (IZ) (Pseudomonas aeruginosa [24]): 21 mm
- inhibition zone (IZ) (Pseudomonas aeruginosa [25]): 20 mm
- inhibition zone (IZ) (Pseudomonas aeruginosa [26]): 7 mm
- MIC (Pseudomonas aeruginosa [27]): 2 µg/mL (≈ 6.68 µM)
- inhibition zone (IZ) (Pseudomonas aeruginosa [28]): 6 mm
- MIC (Pseudomonas aeruginosa [29]): 32 µg/mL (≈ 107 µM)
- MIC (Pseudomonas aeruginosa [30]): 2 µg/mL (≈ 6.68 µM)
- MIC (Pseudomonas aeruginosa [31]): 4 µg/mL (≈ 13.4 µM)
- inhibition zone (IZ) (Pseudomonas aeruginosa [32]): 21 mm
- inhibition zone (IZ) (Pseudomonas aeruginosa [33]): 20 mm
- inhibition zone (IZ) (Pseudomonas aeruginosa [34]): 20 mm
- MIC (Pseudomonas aeruginosa [35]): 4 µg/mL (≈ 13.4 µM)
- MIC (Pseudomonas aeruginosa [36]): 2 µg/mL (≈ 6.68 µM)

SMILES: C[C@@H](O)[C@H]1C(=O)N2C(C(=O)O)=C(S[C@@H]3CN[C@H](C(=O)N(C)C)C3)[C@H](C)[C@H]12 [MEROPENEM]
- inhibition zone (IZ) (Pseudomonas aeruginosa [1]): 20 mm
- MIC (Pseudomonas aeruginosa [2]): 4 µg/mL (≈ 10.4 µM)
- inhibition zone (IZ) (Pseudomonas aeruginosa [3]): 17 mm
- MIC (Pseudomonas aeruginosa [4]): 2 µg/mL (≈ 5.22 µM)
- MIC (Pseudomonas aeruginosa [5]): 4 µg/mL (≈ 10.4 µM)
- inhibition zone (IZ) (Pseudomonas aeruginosa [6]): 6 mm
- inhibition zone (IZ) (Pseudomonas aeruginosa [7]): 19 mm
- inhibition zone (IZ) (Pseudomonas aeruginosa [8]): 21 mm
- inhibition zone (IZ) (Pseudomonas aeruginosa [9]): 21 mm
- MIC (Pseudomonas aeruginosa [10]): 4 µg/mL (≈ 10.4 µM)
- MIC (Pseudomonas aeruginosa [11]): 2 µg/mL (≈ 5.22 µM)
- inhibition zone (IZ) (Pseudomonas aeruginosa [12]): 6 mm
- inhibition zone (IZ) (Pseudomonas aeruginosa [13]): 17 mm
- MIC (Pseudomonas aeruginosa [14]): 4 µg/mL (≈ 10.4 µM)
- MIC (Pseudomonas aeruginosa [15]): 2 µg/mL (≈ 5.22 µM)
- inhibition zone (IZ) (Pseudomonas aeruginosa [16]): 17 mm
- inhibition zone (IZ) (Pseudomonas aeruginosa [17]): 20 mm
- MIC (Pseudomonas aeruginosa [18]): 128 µg/mL (≈ 334 µM)
- MIC (Pseudomonas aeruginosa [19]): 128 µg/mL (≈ 334 µM)
- MIC (Pseudomonas aeruginosa [20]): 4 µg/mL (≈ 10.4 µM)
- MIC (Pseudomonas aeruginosa [21]): 4 µg/mL (≈ 10.4 µM)
- MIC (Pseudomonas aeruginosa [22]): 128 µg/mL (≈ 334 µM)
- inhibition zone (IZ) (Pseudomonas aeruginosa [23]): 17 mm
- inhibition zone (IZ) (Pseudomonas aeruginosa [24]): 21 mm
- inhibition zone (IZ) (Pseudomonas aeruginosa [25]): 16 mm
- inhibition zone (IZ) (Pseudomonas aeruginosa [26]): 6 mm
- MIC (Pseudomonas aeruginosa [27]): 2 µg/mL (≈ 5.22 µM)
- inhibition zone (IZ) (Pseudomonas aeruginosa [28]): 6 mm
- MIC (Pseudomonas aeruginosa [29]): 128 µg/mL (≈ 334 µM)
- MIC (Pseudomonas aeruginosa [30]): 4 µg/mL (≈ 10.4 µM)
- MIC (Pseudomonas aeruginosa [31]): 8 µg/mL (≈ 20.9 µM)
- inhibition zone (IZ) (Pseudomonas aeruginosa [32]): 19 mm
- inhibition zone (IZ) (Pseudomonas aeruginosa [33]): 18 mm
- inhibition zone (IZ) (Pseudomonas aeruginosa [34]): 16 mm
- MIC (Pseudomonas aeruginosa [35]): 4 µg/mL (≈ 10.4 µM)
- MIC (Pseudomonas aeruginosa [36]): 4 µg/mL (≈ 10.4 µM)
